Assay results published in patent US11166980B2, “Compositions, systems, kits, and methods for treating an infection” (Novan, Inc., priority 2016, dated 2021).
≈ marks a conversion by molar mass, not a printed value. Where two headings read alike, the source gives them in different places.

Experiments:
Format in all cases: cell-based
Trichophyton rubrum = assay: Minimum inhibitory concentration (CLSI)
Procedure: (§1) The minimum inhibitory concentration (MIC) of Nitricil™ NVN1 was determined in vitro for 40 strains of fungi to determine the spectrum of antifungal activity. All MIC testing was conducted in accordance with the Clinical and Laboratory Standards Institute (CLSI) guidelines for antimicrobial testing of yeasts (M27-A2) and filamentous fungi (M38-A2), apart from the lipophilic Malassezia species, which were incubated in supplemented buffered RPMI-1640 medium. The challenge strains were exposed to a series of doubling dilutions of Nitricil™ NVN1 prepared in RPMI-1640 medium in triplicate. Fungal species were also challenged with ketoconazole, prepared in DMSO, as a comparator. Tubes were inoculated with fungal suspensions to a final concentration of 0.5-2.5×10^3 cells/mL for yeasts and 0.4-5.0×10^4 colony-forming units (CFU)/mL, for filamentous fungi. The MIC was determined following a 1- to 4-day incubation period.

Candida lusitaniae = assay: Minimum inhibitory concentration (CLSI); details: Clavispora lusitaniae, ATCC200950
Procedure: as §1

Fusarium keratoplasticum = assay: Minimum inhibitory concentration (CLSI); details: ATCC36031
Procedure: as §1

Fusarium solani = assay: Minimum inhibitory concentration (CLSI); details: ATCC56480
Procedure: as §1

Epidermophyton floccosum = assay: Minimum inhibitory concentration (CLSI)
Procedure: as §1

Fusarium oxysporum = assay: Minimum inhibitory concentration (CLSI); details: ATCC62705
Procedure: as §1

[1] = test system: Trichophyton mentagrophytes; assay: Minimum inhibitory concentration (CLSI)
Procedure: as §1

Candida tropicalis = assay: Minimum inhibitory concentration (CLSI); details: NCPF8760
Procedure: as §1

Candida albicans = assay: Minimum inhibitory concentration (CLSI)
Procedure: as §1

40 strains of fungi = assay: Minimum inhibitory concentration, whole panel
Procedure: as §1
The broad-spectrum antifungal activity of Nitricil™ NVN1 was assessed via growth inhibition experiments against 40 different fungal strains per CLSI M27-A2 and M38-A2 methodology (CLSI, 2008) for assessment of yeasts and filamentous fungi respectively utilizing ketoconazole as the antifungal comparator. […]

Malassezia furfur = assay: Minimum inhibitory concentration (supplemented RPMI-1640)
Procedure: as §1

CC(=O)N1CCN(c2ccc(OCC3COC(Cn4ccnc4)(c4ccc(Cl)cc4Cl)O3)cc2)CC1 (centres unmarked) [Ketoconazole, ketoconazole]
MIC (Trichophyton rubrum; ATCC10218, strain ATCC #10218, read-out: MIC): < 0.063 µg/mL | MIC (Trichophyton rubrum; ATCC22402, strain ATCC #22402, read-out: MIC): < 0.063 µg/mL | MIC (Trichophyton rubrum; ATCC28188): 0.125 µg/mL (≈ 0.235 µM) | MIC (Trichophyton rubrum; ATCC44697, strain ATCC #44697, read-out: MIC): > 32 µg/mL | MIC (Trichophyton rubrum; NCPF0113, strain NCPF #0113, read-out: MIC): > 32 µg/mL | MIC (Trichophyton rubrum; NCPF0118, strain NCPF #0118, read-out: MIC): < 0.063 µg/mL | MIC (Trichophyton rubrum; NCPF0295, strain NCPF #0295, read-out: MIC): > 32 µg/mL | MIC (Trichophyton rubrum; NCPF5025, strain NCPF #5025, read-out: MIC): > 32 µg/mL | MIC (Trichophyton rubrum; strain ATCC #MYA-4438, read-out: MIC): > 32 µg/mL | MIC (Candida lusitaniae): < 0.063 µg/mL | MIC (Fusarium keratoplasticum): > 32 µg/mL | MIC (Fusarium solani): > 32 µg/mL | MIC (Epidermophyton floccosum; ATCC38826, strain ATCC #38826, read-out: MIC): 4 µg/mL (≈ 7.53 µM) | MIC (Epidermophyton floccosum; ATCC44685): 0.125 µg/mL (≈ 0.235 µM) | MIC (Epidermophyton floccosum; ATCC52061, strain ATCC #52061, read-out: MIC): 1 µg/mL (≈ 1.88 µM) | MIC (Epidermophyton floccosum; ATCC52063, strain ATCC #52063, read-out: MIC): > 32 µg/mL | MIC (Epidermophyton floccosum; ATCC52066, strain ATCC #52066, read-out: MIC): > 32 µg/mL | MIC (Epidermophyton floccosum; NCPF5011, strain NCPF #5011, read-out: MIC): > 32 µg/mL | MIC (Epidermophyton floccosum; NCPF5012, strain NCPF #5012, read-out: MIC): > 32 µg/mL | MIC (Fusarium oxysporum): > 32 µg/mL | MIC ([1]; ATCC9533, strain ATCC #9533, read-out: MIC): 1 µg/mL (≈ 1.88 µM) | MIC ([1]; ATCC18749): 0.125 µg/mL (≈ 0.235 µM) | MIC ([1]; ATCC28939, strain ATCC #28939, read-out: MIC): 1 µg/mL (≈ 1.88 µM) | MIC ([1]; NCPF0224, strain NCPF #0224, read-out: MIC): 0.25 µg/mL (≈ 0.47 µM) | MIC ([1]; NCPF5024, strain NCPF #5024, read-out: MIC): 0.5 µg/mL (≈ 0.941 µM) | MIC (Candida tropicalis): 32 µg/mL (≈ 60.2 µM) | MIC (Candida albicans; Candida albicans, ATCC10231, strain ATCC #10231, read-out: MIC): < 0.063 µg/mL | MIC (Candida albicans; Candida albicans, ATCC58716, strain ATCC #58716, read-out: MIC): 16 µg/mL (≈ 30.1 µM) | MIC (Candida albicans; Candida albicans, ATCC96901, strain ATCC #96901, read-out: MIC): > 32 µg/mL | MIC (Candida albicans; Candida albicans, strain BLSI #112613Ca1, read-out: MIC): > 32 µg/mL | MIC (Candida albicans; strain BLSI #112613Ca2): >32.0 µg/mL | fold range of MIC values for all fungal species tested (40 strains of fungi): > 500 fold | MIC (Malassezia furfur; ATCC14521, strain ATCC #14521): > 32 µg/mL | MIC (Malassezia furfur; NCPF3349, strain NCPF #3349): > 32 µg/mL | MIC (Malassezia furfur; NCPF8211, strain NCPF #8211): 16 µg/mL (≈ 30.1 µM)
